Measured values as given in ChEMBL document CHEMBL1127596, “Leukotriene B4 (LTB4) receptor antagonists: a series of (hydroxyphenyl)pyrazoles” (J Med Chem, 1994).
pIC50: −log10 of the molar value.

These molecules were tested against Leukotriene B4 receptor 1 (Homo sapiens, UniProt Q15722) (assay: Inhibition of [3H]Leukotriene B4 binding to human PMN).
Chain of Leukotriene B4 receptor 1 (Q15722 whole entry): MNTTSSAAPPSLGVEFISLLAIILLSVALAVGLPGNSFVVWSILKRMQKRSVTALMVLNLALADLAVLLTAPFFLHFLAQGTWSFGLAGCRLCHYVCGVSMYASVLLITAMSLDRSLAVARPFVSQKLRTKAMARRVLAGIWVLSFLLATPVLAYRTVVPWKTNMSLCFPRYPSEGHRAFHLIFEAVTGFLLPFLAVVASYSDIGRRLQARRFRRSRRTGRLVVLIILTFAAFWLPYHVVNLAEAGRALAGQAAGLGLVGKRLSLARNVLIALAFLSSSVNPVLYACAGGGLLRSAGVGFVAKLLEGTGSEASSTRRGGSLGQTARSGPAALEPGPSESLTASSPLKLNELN
With `CCc1cc(-c2cc[nH]n2)c(O)cc1OCCCCCOc1ccc(CC(=O)O)cc1` the pIC50 was 7.26.
`O=C(O)CCc1cccc(OCCCOc2ccc(-c3cc[nH]n3)cc2)c1` was tested, and the pIC50 was < 6.00.
Work on `CCc1cc(-c2cc[nH]n2)c(O)cc1OCCCOc1ccccc1CC(=O)O` yielded a pIC50 of 7.92.
In the case of `CCc1cc(-c2ccn(C)n2)c(O)cc1OCCCCCC(C)(C)c1nnn[nH]1`, the pIC50 was 8.03.
In the case of `CCc1cc(-c2cc[nH]n2)c(O)cc1OCCCOc1ccc(CCC(=O)O)cc1`, the pIC50 was 7.06.
`CCCc1ccc(CCC(=O)O)cc1OCCCOc1cc(O)c(-c2cc[nH]n2)cc1CC` gave a pIC50 of 6.13.
With `CCc1cc(-c2cc[nH]n2)c(O)cc1OCCCOc1cccc(CC(=O)O)c1` the pIC50 was 7.96.
Work on `CCCc1c(OCCCOc2cc(O)c(C(=O)/C=C/N(C)C)cc2CC)ccc2c1OC(C(=O)O)CC2` (stereo not given) yielded a pIC50 of 6.50.
`CCc1cc(-c2ccnn2C)c(O)cc1OCCCCCC(C)(C)c1nnn[nH]1` gave a pIC50 of 6.97.
`CCCc1c(CCC(=O)O)cccc1OCCCOc1cc(O)c(-c2cc[nH]n2)cc1CC` gave a pIC50 of 6.08.
Work on `CCc1cc(-c2cc[nH]n2)c(O)cc1OCCCOc1cccc(CCC(=O)O)c1` yielded a pIC50 of 8.24.
With `CCCc1c(OCCCOc2cc(O)c(-c3cc[nH]n3)cc2CC)ccc2c1OC(C(=O)O)CC2` (stereo not given) the pIC50 was 8.35.
Molecule `CCc1cc(-c2cc[nH]n2)c(O)cc1OCCCCCOc1ccc(C(=O)O)cc1` has a pIC50 of 7.09.
Molecule `CCc1cc(-c2cc[nH]n2)c(O)cc1OCCCCCOc1ccc(CCC(=O)O)cc1` has a pIC50 of 7.55.
Molecule `CCc1cc(-c2ccn[nH]2)c(O)cc1OCCCOc1ccc(CC(=O)O)cc1` has a pIC50 of 7.27.
